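All cell lines were grown in 96-well plates and treated with compound for 48 hours. At the TGI there is no net growth.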
Columns and labels:
Experiment in all cases: DTP human tumour cell line panel, 48 h
[1] = system: A549 NSCLC
[2] = system: HCT-15 colon
[3] = system: MALME-3M melanoma
[4] = system: NCI-H226 lung
[5] = system: NCI-H522 lung
[6] = system: 786-0 renal
[7] = system: SR leukemia
[8] = system: UO-31 renal
[9] = system: M14 melanoma
[10] = system: COLO 205 colon
[11] = system: SNB-19 CNS
[12] = system: T-47D breast
[13] = system: MCF7 breast
[14] = system: DU-145 prostate
[15] = system: NCI/ADR-RES ovarian
[16] = system: ACHN renal
[17] = system: EKVX NSCLC
[18] = system: SN12C renal
[19] = system: HOP-92 NSCLC
[20] = system: SF-539 CNS
[21] = system: HT29 colon
[22] = system: SK-OV-3 ovarian
[23] = system: HOP-62 NSCLC
[24] = system: OVCAR-4 ovarian
[25] = system: KM12 colon
[26] = system: CAKI-1 renal
[27] = system: HL-60(TB) leukemia
[28] = system: HCC-2998 colon
[29] = system: PC-3 prostate
[30] = system: TK-10 renal
[31] = system: NCI-H23 lung
[32] = system: MDA-MB-435
[33] = system: CCRF-CEM leukemia
[34] = system: OVCAR-8 ovarian
[35] = system: RXF 393 renal
[36] = system: U251 CNS
[37] = system: UACC-257 melanoma
[38] = system: MDA-N
[39] = system: HCT-116 colon
[40] = system: SNB-75 CNS
[41] = system: MOLT-4 leukemia
[42] = system: SF-268 CNS
[43] = system: A498 renal
[44] = system: LOX IMVI melanoma
[45] = system: NCI-H460 lung
[46] = system: MDA-MB-231 breast
[47] = system: UACC-62 melanoma
[48] = system: SW-620 colon
[49] = system: OVCAR-3 ovarian
[50] = system: IGROV1 ovarian
[51] = system: SK-MEL-28 melanoma
[52] = system: SF-295 CNS
[53] = system: SK-MEL-2 melanoma
[54] = system: K-562 leukemia
[55] = system: OVCAR-5 ovarian
[56] = system: BT-549 breast
[57] = system: HS 578T breast
[58] = system: RPMI-8226 leukemia
[59] = system: SK-MEL-5 melanoma

## O=C(O)CCC(NC(=O)c1ccc(Oc2nc3ccccc3nc2-c2ccccc2)cc1)C(=O)O (stereo not drawn)
[1]
  TGI: > 100 µM
[2]
  TGI: > 100 µM
[3]
  TGI: > 100 µM
[4]
  TGI: > 100 µM
[5]
  TGI: > 100 µM
[6]
  TGI: > 100 µM
[7]
  TGI: > 100 µM
[8]
  TGI: > 100 µM
[9]
  TGI: > 100 µM
[10]
  TGI: > 100 µM
[11]
  TGI: > 100 µM
[12]
  TGI: > 100 µM
[13]
  TGI: > 100 µM
[14]
  TGI: > 100 µM
[15]
  TGI: > 100 µM
[16]
  TGI: > 100 µM
[17]
  TGI: > 100 µM
[18]
  TGI: > 100 µM
[19]
  TGI: > 100 µM
[20]
  TGI: > 100 µM
[21]
  TGI: > 100 µM
[22]
  TGI: > 100 µM
[23]
  TGI: > 100 µM
[24]
  TGI: > 100 µM
[25]
  TGI: > 100 µM
[26]
  TGI: > 100 µM
[27]
  TGI: > 100 µM
[28]
  TGI: > 100 µM
[29]
  TGI: > 100 µM
[30]
  TGI: > 100 µM
[31]
  TGI: > 100 µM
[32]
  TGI: > 100 µM
[33]
  TGI: > 100 µM
[34]
  TGI: > 100 µM
[35]
  TGI: > 100 µM
[36]
  TGI: > 100 µM
[37]
  TGI: > 100 µM
[38]
  TGI: > 100 µM
[39]
  TGI: > 100 µM
[40]
  TGI: > 100 µM
[41]
  TGI: > 100 µM
[42]
  TGI: > 100 µM
[43]
  TGI: > 100 µM
[44]
  TGI: > 100 µM
[45]
  TGI: > 100 µM
[46]
  TGI: > 100 µM
[47]
  TGI: > 100 µM
[48]
  TGI: > 100 µM
[49]
  TGI: > 100 µM
[50]
  TGI: > 100 µM
[51]
  TGI: > 100 µM
[52]
  TGI: > 100 µM
[53]
  TGI: > 100 µM
[54]
  TGI: > 100 µM
[55]
  TGI: > 100 µM

## CCOC(=O)c1ccc(N(CCOS(=O)(=O)c2ccc(C)cc2)CCOS(=O)(=O)c2ccc(C)cc2)cc1
[1]
  TGI: > 100 µM
[2]
  TGI: > 100 µM
[3]
  TGI: > 100 µM
[5]
  TGI: > 100 µM
[56]
  TGI: > 100 µM
[8]
  TGI: > 100 µM
[9]
  TGI: > 100 µM
[10]
  TGI: > 100 µM
[57]
  TGI: > 100 µM
[11]
  TGI: > 100 µM
[13]
  TGI: > 100 µM
[15]
  TGI: > 100 µM
[16]
  TGI: > 100 µM
[17]
  TGI: > 100 µM
[19]
  TGI: > 100 µM
[20]
  TGI: 41.1 µM
[21]
  TGI: > 100 µM
[24]
  TGI: > 100 µM
[25]
  TGI: > 100 µM
[26]
  TGI: > 100 µM
[28]
  TGI: > 100 µM
[29]
  TGI: 75 µM
[30]
  TGI: > 100 µM
[31]
  TGI: > 100 µM
[32]
  TGI: > 100 µM
[33]
  TGI: > 100 µM
[34]
  TGI: > 100 µM
[35]
  TGI: > 100 µM
[36]
  TGI: 46.6 µM
[37]
  TGI: > 100 µM
[38]
  TGI: > 100 µM
[39]
  TGI: > 100 µM
[58]
  TGI: > 100 µM
[41]
  TGI: > 100 µM
[42]
  TGI: > 100 µM
[59]
  TGI: > 100 µM
[43]
  TGI: > 100 µM
[44]
  TGI: > 100 µM
[45]
  TGI: > 100 µM
[46]
  TGI: 86.8 µM
[47]
  TGI: > 100 µM
[48]
  TGI: > 100 µM
[49]
  TGI: > 100 µM
[50]
  TGI: > 100 µM
[52]
  TGI: > 100 µM
[53]
  TGI: 66.8 µM
[54]
  TGI: > 100 µM
[55]
  TGI: > 100 µM
